According to patent publication US20230399312A1, “SUBSTITUTED PYRIMIDINES AND METHODS OF USE” (THERAVANCE BIOPHARMA R&D IP, LLC, priority 2020, published 2023):

Key:
[1] = target: T1, recombinant human ALK5 (TGF-βR1) protein (Homo sapiens, UniProt P36897); experiment: Biochemical ALK5 (TGF-βR1) assay to measure pKi (LANCE Ultra ULight kinase assay); conditions: apparent pKi, converted from pIC50 by Cheng-Prusoff
T1 construct: purchased Life Technologies PR9075A
T1 sequence (P36897 34-503): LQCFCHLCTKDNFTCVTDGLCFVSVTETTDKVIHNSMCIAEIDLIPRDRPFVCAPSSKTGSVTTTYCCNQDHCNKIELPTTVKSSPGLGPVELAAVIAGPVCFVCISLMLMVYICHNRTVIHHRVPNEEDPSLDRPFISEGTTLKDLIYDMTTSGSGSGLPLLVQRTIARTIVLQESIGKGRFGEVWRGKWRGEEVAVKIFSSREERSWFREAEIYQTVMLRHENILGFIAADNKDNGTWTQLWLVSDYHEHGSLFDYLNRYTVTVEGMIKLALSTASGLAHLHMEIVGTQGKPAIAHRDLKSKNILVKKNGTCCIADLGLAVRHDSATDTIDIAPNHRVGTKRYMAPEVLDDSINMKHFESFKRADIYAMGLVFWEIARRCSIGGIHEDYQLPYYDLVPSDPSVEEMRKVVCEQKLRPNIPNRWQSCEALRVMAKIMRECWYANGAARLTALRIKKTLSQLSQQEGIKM
Description: The assays were performed in a 384-well plate (24 columns×16 wells/rows). An Echo®550 Liquid Handler (Labcyte) was used to prepare various intermediate concentrations of compounds of the present disclosure in 100% DMSO. From the intermediate concentrations, a range of concentrations (from […] to 25 μM corresponding to volumes up to 105 nL) were prepared and ejected into a final assay plate to be used to create individual dose response curves for each of the subject compounds. To a separate column within the assay plate, 105 nL of DMSO in each well was used to establish a maximum assay signal. Additionally, 105 nL of 100 μM SD-208, a selective TGF-βR1 inhibitor (Catalog #S7624, Selleck Chemicals), was used in another column of wells to establish a minimal assay signal.
With a multidrop dispenser, 8 μL of enzyme mixture (1.25× final) was added to each well. […] The plate was then sealed with an adhesive seal and allowed to equilibrate for 60 minutes at room temperature.
Next, 2 μL of 125 μM ATP (5×final, 125 μM ATP prepared in assay buffer with 2 mM DTT) was added to the incubated mixtures, covered with a MicroClime® Environmental Lid (Product No. LLS-0310, Labcyte) and immediately transferred to 37° C. The reactions were allowed to proceed at 37° C. for 60 minutes before terminating with the addition of 10 μL of detection antibody (LANCE® (lanthanide chelate excite) Ultra Europium-anti-phospo-DNA Topoisomerase 2-alpha (Thr1342)) in detection mixture (12 mM EDTA, 4 nM detection antibody prepared in detection buffer (50 mM Tris-HCl, 150 mM NaCl, 0.5% BSA (Fraction V), pH 7.0)) at room temperature. The plate was then read on a Perkin Elmer EnVision Plate Reader using europium specific reader settings with excitation and emission wavelengths set to 320 or 340 nm and 665 nm, respectively.
For dose-response analyses, percent inhibition versus compound concentrations were plotted, and pIC50 values were determined from a 4-parameter robust fit model with GraphPad Prism V5 Software (GraphPad Software, Inc., La Jolla, CA). This model obtains pIC50 values by fitting the sigmoidal dose-response (variable slope) equation to the data. Results were expressed as pIC50 (negative logarithm of IC50) and subsequently converted to pKi (negative logarithm of dissociate constant, Ki) using the Cheng-Prusoff equation. The higher the value of pKi (lower value of Ki), the greater the inhibition of ALK5 activity.

[2] = test system: TGF-β-stimulated SMAD3 phosphorylation in BEAS-2B cells; experiment: Cellular ALK5 potency assay, inhibition of TGF-β stimulated pSMAD3 formation in BEAS-2B cells; type: cell-based; conditions: Homo sapiens, pSMAD3, TGF-β 10 ng/mL, read-out: BEAS2B pIC50 (converted)
Description: The potency of compounds of the present disclosure for inhibition of TGF-β-stimulated SMAD3 phosphorylation was measured in BEAS-2B cells, a human lung epithelial cell line. TGF-β signals through activin receptor-like kinase 5 (ALK5) immediately prior to SMAD3 phosphorylation.
BEAS-2B cells were grown using 50% DMEM (Life Technologies) and 50% F-12 (Life Technologies) media, supplemented with 10% Fetal Bovine Serum (ATCC), 25 mM HEPES (Life Technologies), and 1×Pen-Strep (Life Technologies). Cells were cultured in a humidified incubator set at 37° C., 5% CO2, and trypsonized using 0.25% Trypsin with 0.5% polyvinylpyrrolidone (PVP).
For the assay, BEAS-2B cells were seeded at 7,500 cells/well (25 μL/well) in a 384-well plate and cultured overnight. Before dosing, growth media was aspirated and the wells were rinsed with HBSS Buffer (HBSS with Calcium and Magnesium, Life Technologies) supplemented with 25 mM HEPES (Life Technologies) and 1% Bovine Serum Albumin (Roche). Compounds were serially diluted in DMSO, then further diluted with supplemented HBSS Buffer (50 μL/well) to create a compound plate 3× of the final assay concentration, at 0.3% DMSO. The diluted compounds were then added to the cells (8 μL/well) and incubated at 37° C., 5% CO2 for 1 hour. After the compound incubation, TGF-β (R&D Systems) reconstituted in supplemented HBSS Buffer was added to the cells ([…], final concentration 10 ng/mL) and incubated for a further 30 minutes, after which the cells were immediately lysed with AlphaLISA lysis buffer (PerkinElmer). AlphaLISA Acceptor and Detector beads (PerkinElmer) were added 2 hours apart, then incubated overnight to be read the next day. The potency of the compound was determined through analysis of dose-dependent quantified changes in pSMAD3 signal from baseline (non-compound treated TGF-β stimulated cells). Data are expressed as pIC50 (negative decadic logarithm IC50) values.

SMILES	Ki [1] [nM]	IC50 [2] [nM]
COc1cc(Nc2nccc(Nc3ccnc(-c4cccc(C)n4)n3)n2)ccc1NS(C)(=O)=O [Compound 18, N-[2-methoxy-4-[[4-[[2-(6-methyl-2-pyridyl)pyrimidin-4-yl]amino]pyrimidin-2-yl]amino]phenyl] methanesulfonamide]	0.398 to 3.16	25.1 to 158
Fc1cc(F)c(-c2nccc(Nc3ccnc(Nc4ccc(N5CCOCC5)cc4)n3)n2)cc1Cl [Compound 19, N4-[2-(5-chloro-2,4-difluoro-phenyl)pyrimidin-4-yl]-N2-(4-morpholinophenyl)pyrimidine-2,4-diamine]	3.98 to 31.6	25.1 to 158
COc1ncc(Nc2nccc(Nc3ccnc(-c4cccc(C)n4)n3)n2)cc1NS(C)(=O)=O [Compound 20, N-[2-methoxy-5-[[4-[[2-(6-methyl-2-pyridyl)pyrimidin-4-yl]amino]pyrimidin-2-yl]amino]-3-pyridyl]methanesulfonamide]	0.398 to 3.16	≤ 20
Cc1cccc(-c2nccc(Nc3ccnc(Nc4ccc(S(=O)(=O)N5CCNCC5)cc4)n3)n2)n1 [Compound 21, N4-[2-(6-methyl-2-pyridyl)pyrimidin-4-yl]-N2-(4-piperazin-1-ylsulfonylphenyl)pyrimidine-2,4-diamine]	0.0398 to 0.316	25.1 to 158
Cc1cccc(-c2nccc(Nc3ccnc(Nc4ccc(CN5CC(C(=O)OC6CCNCC6)C5)cc4)n3)n2)n1 [Compound 22, 4-piperidyl 1-[[4-[[4-[[2-(6-methyl-2-pyridyl)pyrimidin-4-yl]amino]pyrimidin-2-yl]amino]phenyl]methyl] azetidine-3-carboxylate]	0.0398 to 0.316	25.1 to 158
Cc1cccc(-c2nccc(Nc3ccnc(Nc4ccc(CN5CCN(Cc6ccccc6)CC5)cc4)n3)n2)n1 [Compound 23, N2-[4-[(4-benzylpiperazin-1-yl)methyl]phenyl]-N4-[2-(6-methyl-2-pyridyl)pyrimidin-4-yl]pyrimidine-2,4-diamine]	0.0398 to 0.316	25.1 to 158
Cc1cccc(-c2nccc(Nc3ccnc(Nc4ccc(CN(C)C)cc4)n3)n2)n1 [Compound 24, N2-[4-[(dimethylamino)methyl]phenyl]-N4-[2-(6-methyl-2-pyridyl)pyrimidin-4-yl]pyrimidine-2,4-diamine]	≤ 0.0316	25.1 to 158
COC(=O)C1CNCCN1Cc1ccc(Nc2nccc(Nc3ccnc(-c4cccc(C)n4)n3)n2)cc1 (centres unmarked) [Compound 25, methyl 1-[[4-[[4-[[2-(6-methyl-2-pyridyl)pyrimidin-4-yl]amino]pyrimidin-2-yl]amino]phenyl]methyl] piperazine-2-carboxylate]	0.0398 to 0.316	25.1 to 158
Cc1cccc(-c2nccc(Nc3ccnc(Nc4ccc(N5CCN(Cc6ccccc6)CC5)cc4)n3)n2)n1 [Compound 27, N2-[4-(4-benzylpiperazin-1-yl)phenyl]-N4-[2-(6-methyl-2-pyridyl)pyrimidin-4-yl]pyrimidine-2,4-diamine]	0.0398 to 0.316	25.1 to 158
COC(=O)C1CCN(Cc2ccc(Nc3nccc(Nc4ccnc(-c5cccc(C)n5)n4)n3)cc2)CC1 [Compound 28, methyl 1-[[4-[[4-[[2-(6-methyl-2-pyridyl)pyrimidin-4-yl]amino]pyrimidin-2-yl]amino]phenyl]methyl] piperidine-4-carboxylate]	0.0398 to 0.316	≤ 20
Cc1cccc(-c2nccc(Nc3ccnc(Nc4ccc(CN5CCCC(C(=O)OC6CCN(C)C6)C5)cc4)n3)n2)n1 (centres unmarked) [Compound 29, (1-methylpyrrolidin-3-yl) 1-[[4-[[4-[[2-(6-methyl-2-pyridyl)pyrimidin-4-yl]amino]pyrimidin-2-yl]amino]phenyl]methyl] piperidine-3-carboxylate]	≤ 0.0316	≤ 20
Cc1cccc(-c2nccc(Nc3ccnc(Nc4ncc(C(=O)N5CCNCC5)s4)n3)n2)n1 [Compound 30, [2-[[4-[[2-(6-methyl-2-pyridyl)pyrimidin-4-yl]amino]pyrimidin-2-yl]amino]thiazol-5-yl]-piperazin-1-yl-methanone]	3.98 to 31.6	200 to 1260
Cc1cccc(-c2nccc(Nc3ccnc(Nc4ccc(N5CCNCC5CC(=O)O)cc4)n3)n2)n1 (centres unmarked) [Compound 31, 2-[1-[4-[[4-[[2-(6-methyl-2-pyridyl)pyrimidin-4-yl]amino]pyrimidin-2-yl]amino]phenyl]piperazin-2-yl]acetic acid]	0.0398 to 0.316	200 to 1260
Cc1cccc(-c2nccc(Nc3ccnc(Nc4ccc(CN5C[C@@H](C)NC[C@H]5C)cc4)n3)n2)n1 [Compound 32, N2-[4-[[(2R,5R)-2,5-dimethylpiperazin-1-yl]methyl]phenyl]-N4-[2-(6-methyl-2-pyridyl)pyrimidin-4-yl]pyrimidine-2,4-diamine]	0.0398 to 0.316	25.1 to 158
Cc1cccc(-c2nccc(Nc3ccnc(Nc4ccc(C(=O)OCC5CNC5)cc4)n3)n2)n1 [Compound 33, azetidin-3-ylmethyl 4-((4-((2-(6-methylpyridin-2-yl)pyrimidin-4-yl)amino)pyrimidin-2-yl)amino)benzoate]	0.0398 to 0.316	25.1 to 158
Cc1cccc(-c2nccc(Nc3ccnc(Nc4ccc(N5C[C@H]6CC[C@@H](C5)N6)cc4)n3)n2)n1 [Compound 34, N4-[2-(6-methyl-2-pyridyl)pyrimidin-4-yl]-N2-[4-[rac-(1S,5R)-3,8-diazabicyclo[3.2.1]octan-3-yl]phenyl]pyrimidine-2,4-diamine]	0.0398 to 0.316	25.1 to 158
Fc1ccc(-c2nccc(Nc3ccnc(Nc4ccc(N5CCOCC5)cc4)n3)n2)c(F)c1 [Compound 35, N4-[2-(2,4-difluorophenyl)pyrimidin-4-yl]-N2-(4-morpholinophenyl) pyrimidine-2,4-diamine]	3.98 to 31.6	25.1 to 158
Cc1cccc(-c2nccc(Nc3ccnc(Nc4ccc(-c5cnn(CCO)c5)cc4)n3)n2)n1 [Compound 36, 2-[4-[4-[[4-[[2-(6-methyl-2-pyridyl)pyrimidin-4-yl]amino]pyrimidin-2-yl]amino]phenyl]pyrazol-1-yl]ethanol]	0.398 to 3.16	25.1 to 158
Cc1cccc(-c2nccc(Nc3ccnc(Nc4ccc(N5CCN(C(=O)CSC(CCO)C(=O)O)CC5)cc4)n3)n2)n1 (centres unmarked) [Compound 37, 4-hydroxy-2-[2-[4-[4-[[4-[[2-(6-methyl-2-pyridyl)pyrimidin-4-yl]amino]pyrimidin-2-yl]amino]phenyl]piperazin-1-yl]-2-oxo-ethyl]sulfanyl-butanoic acid]	0.0398 to 0.316	200 to 1260
